Experimental findings from patent US11161823B2, “Anticancer 1,3-dioxane-4,6-dione derivatives and method of combinatorial synthesis thereof” (National Guard Health Affairs, priority 2019, dated 2021) are described below.

For one experiment, the system named is ThP1 (leukemia). Put plainly: Cell Titre Glo luminescent cell viability assay, ThP1. The class given is cell-based. The settings on record: Homo sapiens, THP-1; Cell Titre Glo luminescence, normalized to DMSO controls. The source says:
(§1) Another embodiment discloses Titer Glo Assay for the characterization of the synthesized compounds. The CellTiter-Glo® Luminescent Cell Viability Assay is a homogeneous method of determining the number of viable cells in culture based on quantitation of the ATP present, an indicator of metabolically active cells. The CellTiter-Glo® Assay is designed for use with multiwell formats, making it ideal for automated high-throughput screening (HTS), cell proliferation, and cytotoxicity assays. The homogeneous assay procedure involves adding the single reagent (CellTiter-Glo® Reagent) directly to cells cultured in serum-supplemented medium. Cell washing, removal of medium, and multiple pipetting steps are not required. The system detects as few as 15 cells/well in a 384-well format in 10 minutes after adding reagent and mixing.
(§2) Cell Culture: The human breast cancer epithelial cell lines MDA-MB-231 (HTB-26™), MCF-7 (HTB-22™), colon cancer cell lines HCT 116 (CCL-247™) and […] (CCL-244™) were obtained from American Type Culture Collection (ATCC). Additionally, KAIMRC1 cell line was isolated and developed at KAIMRC from a breast cancer patient. All the cells were grown in advanced DMEM containing 10% fetal bovine serum (FBS), 50 units/mL penicillin, 50 ug/mL streptomycin (GIBCO), and 2 mM glutamine (GIBCO). The cells were cultured at 37° C. in a humidified 5% CO2 atmosphere for 24 hours before experimental procedure.
(§3) Cell Titre Glo assay was performed on two Leukemia cell lines, HL 60 and ThP1 as per manufacturer's (Promega) recommendations. Briefly, plates were prepared as mentioned in cell culture section. 100 µL of Cell Titre Glo was added directly to the wells. After incubation for 30 minutes at room temperature, luminescence was measured using the Envision plate reader (Perkin Elmer). Luminescence readings were normalized to averaged DMSO controls and expressed as relative percentage. IC50 values were calculated from dose-response curves generated using a polynomial dose-response approximation using Prism 8 software.

A further experiment relates to HCT 8 (Colon). Put plainly: MTT cell proliferation assay, HCT 8. The class given is cell-based, human. Particulars: Homo sapiens, HCT-8; MTT, 48 h treatment, medium with 10% FBS; read-out: IC50 μM HCT 8 (Colon). The method, then: as §2
(§4) Cell Proliferation Assay (MTT): Cells were plated on flat-bottom 96-well plates at a density of 5×10^3 cells/well in 100 μL growth medium. Serial dilutions of the compounds, ranging from 100 nM-100 μM were tested on the cells in triplicates. Additional rows with only the compounds and only cells were added in order to account for the compounds and cells effect. Cells were incubated with compounds for 48 h at 37° C. with 5% CO2.
(§5) After 48 h treatment, the cell viability was determined using the MTT viability assay. Briefly, 5 μL of MTT reagent (5 mg/mL stock) per 95 μl cell culture medium was added to each well and incubated for 3 h at 37° C. with 5% CO2. After 3 h the supernatant was removed, and the MTT formazan crystals were dissolved in dimethyl sulfoxide (DMSO) by shaking the plate for 30 mins at RT. The absorbance was measured on Molecular Devices microplate absorbance reader at 560 nm. The percentage of viable cells was calculated as the ratio of the absorbance of the treated group divided by the absorbance of the control group multiplied by 100. The absorbance from the untreated control cells was set as 100% viable. IC50 values were calculated from dose-response curves generated using a polynomial dose-response approximation using Prism 8 software. The IC50 values (µM) obtained for the compounds of present invention on MDA-MD 231 (breast), MCF-7 (breast), KAIMRC1 (breast), HCT116 (colon) and HCT8 (colon) are summarized in Table 5 and 6.

The test system of a further experiment is KAIMRC1 (Breast). Put plainly: MTT cell proliferation assay, KAIMRC1. The format is cell-based, human. Particulars: Homo sapiens; MTT, 48 h treatment, medium with 10% FBS; read-out: IC50 μM KAIMRC1 (Breast).
Text: The immortalized cell lines included in the testing panel of this disclosure are MCF7 (a breast cancer cell line), MCF10 (immortalized human breast epithelial cells), MDA-MB231 (an epithelial, human breast cancer cell line that was established from a pleural effusion of a patient with a metastatic mammary adenocarcinoma), KAIMRC1 (a naturally immortalized human breast carcinoma cell line), KAIMRC2 (a naturally immortalized breast cancer cell line). The primary cells available for lead toxicity assays are, without limitation: hepatocytes (supplied by Xenotech, Bioscience Lonza, Accegen, Biocompare, Gibco, Zen-Bio, Takarabio, AxolBio, Creative Bioarray), cardiomyocytes (supplied by Cellartis, Axolbio, Cedarlanelabs, EMD Millipore, Takara Bio, Neuromics, AcceGene), primary neurons (AcceGen, Cellapplications, Neuromics, Biocompare, AxolBio, BrainXcell), endothelial lining (Thermofisher, Accegen, Biocompare, Promocell, ATCC). Multicellular 3D organoids raised by differentiating iPSC (induced pluripotent stem cells) are provided by Sigma Aldrich (the iPSC cell lines, organoids), Tocris Bioscience, Thermofisher, Stemcell Technologies, Takara Bio, Emulatebio (Human organ chips), Prodolabs.
as §2, §4, §5

Experiment [1] deals with MDA-MD 231 (breast), MCF-7 (breast), KAIMRC1 (breast), HCT116 (colon) and HCT8 (colon). Put plainly: MTT assay, review of Tables 5 and 6 (whole cell line panel). The class given is cell-based, human. Particulars: review of Tables 5 and 6, MTT IC50. As to the method: as §2, §4, §5
The presence of nitrogen in certain positions of quinoline and/or iso-quinoline ring is the structure-activity determinant, and the subsequent variations in the nitrogen positions and substituents in this ring produce stronger leads by the methods of combinatorial expansion disclosed herein.

The next experiment concerns HCT116 (Colon). Description: MTT cell proliferation assay, HCT116. The format is cell-based, human. Particulars: Homo sapiens, HCT-116; MTT, 48 h treatment, medium with 10% FBS; read-out: IC50 μM HCT116 (Colon). As to the method: as §2, §4, §5
(Tetrazolium dyes change colour on reduction, which living cells bring about.)

Another experiment relates to MCF-7 (Breast). Description: MTT cell proliferation assay, MCF-7. The class given is cell-based, human. Particulars: Homo sapiens, MCF7; MTT, 48 h treatment, medium with 10% FBS; read-out: IC50 μM MCF-7 (Breast). As to the method:
as §2, §4, §5

In experiment [2] the test system is MDA MB-231 cell line (Breast). Description: MTT cell proliferation assay, MDA MB-231. The settings on record: Homo sapiens, MDA-MB-231; MTT, 48 h treatment, medium with 10% FBS; read-out: IC50 μM MDA MB-231 (Breast). The format is cell-based, human. As to the method: as §2, §4, §5
Another experiment relates to HL 60 (leukemia). Put plainly: Cell Titre Glo luminescent cell viability assay, HL 60. The format is cell-based. Particulars: Homo sapiens, HL-60; Cell Titre Glo luminescence, normalized to DMSO controls.
Text: as §1, §2, §3

As usually defined, the IC50 is the concentration at which inhibition is half-maximal. Regarding `CCC1(C)OC(=O)C(=C/C=C/c2ccncc2)C(=O)O1` (stereo not drawn) [Example 9, 2-ETHYL-2-METHYL-5-(3-PYRIDIN-4-YL-ALLYLIDENE)-[1,3]DIOXANE-4,6-DIONE], the IC50 with ThP1 (leukemia) stood at 2.81 µM; in the experiment on HCT 8 (Colon), 2.17 µM; in the experiment with KAIMRC1 (Breast), 21.6 µM; in the experiment with HCT116 (Colon), 3.54 µM; with MCF-7 (Breast), 24.2 µM; in experiment [2] it was 5.03 µM. Further, the “range of activity compared with Mitoxanthrone” value in experiment [1] is on record as “range of activity that begins to overlap with that of Mitoxanthrone”.

Turning to `CC1(C)OC(=O)C(=CC=Cc2cncc3ccccc23)C(=O)O1` [Example 10, 5-(3-ISOQUINOLIN-4-YL-ALLYLIDENE)-2,2-DIMETHYL-[1,3]DIOXANE-4,6-DIONE], the IC50 is 1.51 µM in the experiment on ThP1 (leukemia), 1.37 µM in the experiment with HCT 8 (Colon) and 4.45 µM in the experiment on KAIMRC1 (Breast). Further, the “range of activity compared with Mitoxanthrone” value in experiment [1] is listed as “range of activity that begins to overlap with that of Mitoxanthrone”.

For `CCC1(C)OC(=O)C(=CC=Cc2cncc3ccccc23)C(=O)O1` (stereo not drawn) [Example 12, 2-ETHYL-5-(3-ISOQUINOLIN-4-YL-ALLYLIDENE)-2-METHYL-[1,3]DIOXANE-4,6-DIONE], the half-inhibitory concentration (IC50) in the experiment with ThP1 (leukemia) amounted to 1.82 µM; with HCT 8 (Colon), 1.87 µM; with KAIMRC1 (Breast), 4.25 µM; with HCT116 (Colon) it was 2.47 µM; with MCF-7 (Breast) it was 9.29 µM; with HL 60 (leukemia), 2.05 µM. Further, in experiment [2], the IC50 amounted to 6.05 µM. For the same molecule, the “range of activity compared with Mitoxanthrone” value in experiment [1] is listed as “range of activity that begins to overlap with that of Mitoxanthrone”.

Take `CCC1(C)OC(=O)C(=CC=Cc2ccnc3ccccc23)C(=O)O1` (stereo not drawn) [Example 13, 2-ETHYL-2-METHYL-5-(3-QUINOLIN-4-YL-ALLYLIDENE)-[1,3]DIOXANE-4,6-DIONE]: the IC50 with ThP1 (leukemia) turned out to be 0.88 µM; in the experiment on HCT 8 (Colon) it was 19.8 µM; in the experiment on KAIMRC1 (Breast), 14.4 µM; with HCT116 (Colon), 6.38 µM; in the experiment on MCF-7 (Breast) it was 9.15 µM; in the experiment on HL 60 (leukemia), 1.04 µM. Besides, in experiment [2], the IC50 was 11 µM. Also, in experiment [1], the “range of activity compared with Mitoxanthrone” value is “range of activity that begins to overlap with that of Mitoxanthrone”.
